The values below come from patent US20050240034A1, “Artemisinin-based peroxide compounds as broad spectrum anti-infective agents” (priority 2002, published 2005).

Converted amounts (≈) assume the structure as drawn. Where two headings read alike, the source gives them in different places.

For experiment [1], the system named is P. falciparum K1. Briefly: WHO/TDR in vitro antimalarial screen, K1. The class given is cell-based, Plasmodium falciparum. The note with it: K1, chloroquine-resistant. As for the experimental part: (§1) […]. All test compounds are solubilized in DMSO and diluted 400 fold (to rule out a DMSO effect) in culture medium with plasma for a starting concentration of at least 12,500 ng/mL. Drugs are subsequently diluted five fold using the Cetus Pro/Pette system utilizing a range of concentrations from 0.8 ng/mL to 12,500 ng/mL. Fifty percent inhibitory concentrations are reported in ng/mL.
(§2) The D6 African P. falciparum clone is sensitive to chloroquine, pyrimethamine and sulfadoxine but resistant to mefloquine. The W2 Indochina P. falciparum clone is resistant to chloroquine, pyrimethamine and sulfadoxine but sensitive to mefloquine. The K1 P. falciparum is a resistant strain, where NF54 P. falciparum is a sensitive strain.

The test system of experiment [2] is P. berghei N. The experiment in a line: in vivo Peter's 4-day antimalarial test in mice, P. berghei N. Set-up: P. berghei N P.O. ED50 / P. berghei N P.O. ED90: unit not given beside the values. The note with it: mice, 4-day test; for P. berghei N P.O. ED50 / P. berghei N P.O. ED90 / P. berghei N S.C. ED50 / P. berghei N S.C. ED90: unit not given; for ED50: Plasmodium berghei, 96 h, unit inferred. As for the experimental part: (§3) The parasitemia is determined on the day following the last treatment—day 4 to determine qualitatively the presence and degree of activity at the screening dose.

Experiment [3] deals with P. falciparum D6 (Sierra Leone). The experiment in a line: antimalarial parasite LDH (pLDH) assay, D6. In kind it is cell-based, Plasmodium falciparum. The note with it: for IC50: pLDH assay, Table 5, read-out: P. falciparum (D6 Clone) IC50; for P. falciparum (IC50) D6: LDH assay, Table 6; for S. I. (D6): Selectivity Index = IC50 (Vero cells)/IC50 (P. falciparum). As for the experimental part: (§4) The Thad Cochran National Center for Natural Products Research (University of Mississippi) in vitro antimalarial screen was conducted using an enzyme assay for detection of P. falciparum (see procedure below). This assay is based on the observation that lactate dehydrogenase (LDH) of P. falciparum is distinguishable from host LDH activity. P. falciparum LDH rapidly uses 3-acetyl pyridine nicotinamide adenine dinucleotide (APAD) as a coenzyme in the biotransformation of […].^38 The same process is carried out in human red blood cells at a very slow rate.
(§5) The “Antimalarial parasite LDH assay” is currently being conducted according the following procedure: prepare a suspension of RBC with a 2% parasitemia and 2% hematocrit in malaria complete medium. Dispense 200 μl aliquots of this suspension into each well of a 96 well microtiter plate. Add 10 μl volumes of the drugs to be tested in duplicate to the appropriate wells. Place the plates into humidified chamber and flush the cultures with a gas mixture consisting of 90% N2, 5% O2, and 5% CO2. Transfer the chamber containing the plates to an incubator, and incubate for 48 hours at 37° C. After 48 hours add 100 μl aliquots of the Malstat™ reagent to each well of a new 96-well microtiter plate Resuspend the cultures from the assay plate by mixing each well up and down several times. Remove 20 μl from each well of the resuspend culture and add to the plate containing the Malstat™ reagent. Incubate the plates at room temperature for 30 minutes. After 30 minutes, add to each well 20 μl of the 1:1 mixture of the NBT/PES solution (2 mg/ml and 0.1 mg/ml, respectively). Incubate the plates in the dark for 1 hour. Add 100 μl of 5% acetic acid solution to stop the reaction. The plate is then read at an endpoint of approximately 650 nm. The dose response curves are generated using Microsoft Excel.
(§6) Antimalarial activity of the analogues was determined in vitro on chloroquine sensitive (D)6, Sierra Leone) and resistant (W2, IndoChina) strains of Plasmodium falciparum. The 96 well microplate assay is based on evaluation of the effect of the compounds on the growth of asynchronous cultures of P. falciparum, determined by the assay of parasite lactate dehydrogenase (pLDH) activity.^28 The appropriate dilutions of the compounds were prepared in DMSO or RPMI-1640 medium and added to the cultures of P. falciparum (2% hematocrit, 2% parasitemia) set up in clear flat bottomed 96 well plates. The plates were placed into the humidified chamber and flushed with a gas mixture of 90% N2, 5% CO2 & 5% O2. The cultures were incubated at 37° C. for 48 hours. Growth of the parasite in each well was determined by pLDH assay using Malstat® reagent. The medium and RBC controls were also set-up in each plate. The standard antimalarial agents, chloroquine and artemisinin, were used as the positive controls while DMSO was tested as the negative control.

Experiment [4] deals with P. falciparum NF54. The experiment in a line: WHO/TDR in vitro antimalarial screen, NF54. The class given is cell-based, Plasmodium falciparum. The settings on record: NF54, chloroquine-sensitive, second value in brackets not explained. As for the experimental part: as §1, §2
In experiment [5] the test system is P. falciparum Indochina W2 clone. The experiment in a line: WHO/TDR in vitro antimalarial screen, W2 clone. In kind it is cell-based, Plasmodium falciparum. The note with it: chloroquine-resistant, mefloquine-sensitive, second value in brackets not explained. As for the experimental part: (§7) All test compounds are solubilized in DMSO and diluted 400 fold (to rule out a DMSO effect) in culture medium with plasma for a starting concentration of at least 12,500 ng/mL. Drugs are subsequently diluted five fold using the Cetus Pro/Pette system utilizing a range of concentrations from 0.8 ng/mL to 12,500 ng/mL. Fifty percent inhibitory concentrations are reported in ng/mL.
as §2

For experiment [6], the system named is P. falciparum Sierra Leone D6 clone. The experiment in a line: WHO/TDR in vitro antimalarial screen (uptake of radiolabeled nucleic acid precursor), D6 clone. In kind it is cell-based, Plasmodium falciparum. The settings on record: mefloquine-resistant, chloroquine-sensitive, second value in brackets not explained. As for the experimental part:
as §7, §2

Experiment [7] has as its system P. falciparum W2 (IndoChina). Briefly: antimalarial parasite LDH (pLDH) assay, W2. The class given is cell-based, Plasmodium falciparum. The note with it: for IC50: pLDH assay, Table 5, read-out: P. falciparum (W2 Clone) IC50; for P. falciparum (IC50) W2: LDH assay, Table 6; for S. I. (W2): Selectivity Index = IC50 (Vero cells)/IC50 (P. falciparum). As for the experimental part:
as §4, §5
as §6, with “plate.” for “plate. The standard antimalarial agents, chloroquine and artemisinin, were used as the positive controls while DMSO was tested as the negative control.”

Experiment [8] deals with P. yoelli ssp. NS. Briefly: in vivo 4-day antimalarial test in mice, P. yoelli ssp. NS. The settings on record: subcutaneous. As for the experimental part: as §3
Experiment [9] relates to Leishmania donovani promastigotes expressing firefly luciferase. Briefly: antileishmanial luciferase assay on transgenic promastigotes. The class given is cell-based. The note with it: Table 1 (artemisinin analogues); NA = not active up to 125 μg/ml; read-out: Antileishmanial activity IC50. As for the experimental part: Antileishmanial activity of the compounds was tested on a transgenic cell line of Leishmania donovani promastigotes expressing firefly luciferase.^29a In a 96 well microplate assay, compounds with appropriate dilution were added to the leishmania promastigotes culture (2×10^6 cell/mL). The plates were incubated at 26° C. for 72 hours and growth of leishmania promastigotes was determined by luciferase assay with Steady Glo® reagent (Promega, USA). Pentamidine and Amphotericin B were used as standard antileishmanial agents. The analogues were simultaneously tested for cytotoxicity on VERO cells (monkey kidney fibroblast) by Neutral Red assay.^29b IC50 values for the compounds were computed from the growth inhibition curve.

For the molecule `CCN(CC)CCCC(C)Nc1ccnc2cc(Cl)ccc12` (stereo not shown) [Chloroquine, chloroquine, reference compound], the “P. falciparum (IC50) K1” value in experiment [1] is 0.07901 µg/mL. Also, in experiment [2] (oral), the “P. berghei N P.O. ED50” value is reported as 1.7 and the “P. berghei N P.O. ED90” value came out at 3.1. Also, in experiment [2] (subcutaneous), the “P. berghei N S.C. ED50” value was determined as 1.5 and the “P. berghei N S.C. ED90” value is recorded as 3. In addition, the IC50 in [3] is 16.5 nM. Besides, the “P. falciparum (IC50) NF54” value in experiment [4] is reported as 7.36 ng/mL. Further, in experiment [5], the “P. falciparum (IC50) W2” value was found to be 0.11804 µg/mL. In addition, the “P. falciparum (IC50) D6” value in [6] was 0.00758 µg/mL. Further, the IC50 in [7] turned out to be 233 nM. In experiment [8] (unit inferred), the P. yoelli ssp. NS (S.C.) ED50 worked out at 1.6 mg/kg and the P. yoelli ssp. NS (S.C.) ED90 amounted to 28 mg/kg.

`OC(c1cc(C(F)(F)F)nc2c(C(F)(F)F)cccc12)C1CCCCN1` (stereo not shown) [Mefloquine, mefloquine, reference compound]: the IC50 in [1] (Plasmodium falciparum) came to 0.0203 µg/mL (≈ 0.0538 µM); in [3] (Plasmodium falciparum, D6), 170 nM; in [4] (Plasmodium falciparum) it was 0.0354 µg/mL (≈ 0.0935 µM); in experiment [5] (Plasmodium falciparum), 0.0341 µg/mL (≈ 0.09 µM); in [6] (Plasmodium falciparum), 0.0456 µg/mL (≈ 0.12 µM); in experiment [7] (Plasmodium falciparum, W2) it was 195 nM. In addition, the ED50 came out at 1.1 mg/kg in experiment [2] (oral, read-out: P. berghei N P.O. ED50); 1.5 mg/kg in [2] (sc, subcutaneous, read-out: P. berghei N S.C. ED50); 2.3 mg/kg in experiment [8] (Plasmodium yoelii, sc, unit inferred, read-out: P. yoelli ssp. NS (S.C.) ED50). The “P. berghei N P.O. ED90” value in [2] (oral) came out at 2.3. The “P. berghei N S.C. ED90” value in experiment [2] (subcutaneous) turned out to be 3.8.

Turning to “(+)-Octahydro-3,6α-dimethyl-3,12-epoxy-9β-(3′-(m-fluorophenyl)propyl)-12H-pyrano[4,3j]-1,2-benzodioxepin [Compound 37]”, the “P. falciparum (IC50) K1” value in experiment [1] was 0.01156 µg/mL. Besides, in experiment [2] (oral), the “P. berghei N P.O. ED50” value is listed as 0.9 (0.38-1.9) and the “P. berghei N P.O. ED90” value is 3.4 (1.45-7.5). Besides, in [2] (subcutaneous), the “P. berghei N S.C. ED50” value is 0.46 (0.19-1.1) and the “P. berghei N S.C. ED90” value is 0.85 (0.36-2.3). In experiment [3], the “P. falciparum (IC50) D6” value was found to be 0.011 µg/mL. In addition, in [3] (D6), the “S. I. (D6)” value was greater than 43.0. Further, the “P. falciparum (IC50) NF54” value in experiment [4] was 41.76 (27.33) ng/mL. The “P. falciparum (IC50) W2” value in experiment [5] stood at 0.02683 µg/mL. Besides, the IC50 in experiment [9] amounted to 88300 nM. Also, the “P. falciparum (IC50) D6” value in experiment [6] amounted to 0.00828 µg/mL. For the same molecule, in experiment [7], the “P. falciparum (IC50) W2” value came out at 0.012 µg/mL. Moreover, the “S. I. (W2)” value in experiment [7] (W2) is greater than 40. In [8] (unit not given), the “P. yoelli ssp. NS (S.C.) ED50” value is on record as 0.58 (0.45-1.0) and the “P. yoelli ssp. NS (S.C.) ED90” value is 1.00 (0.8-1.8).

Take “(+)-Octahydro-3,6α-dimethyl-3,12-epoxy-9β-(3′-(m-trifluoromethylphenyl)propyl)-12H-pyrano[4,3j]-1,2-benzodioxepin [Compound 38]”: the “P. falciparum (IC50) K1” value in experiment [1] amounted to 0.012 µg/mL. In [2] (oral), the “P. berghei N P.O. ED50” value was 1.25 (0.5-2.3) and the “P. berghei N P.O. ED90” value is listed as 4.4 (1.3-6.2). In [2] (subcutaneous), the “P. berghei N S.C. ED50” value is 0.4 (0.2-1.2) and the “P. berghei N S.C. ED90” value is 0.75 (0.4-2.1). For the same molecule, in experiment [3], the “P. falciparum (IC50) D6” value was found to be 0.0087 µg/mL and the concentration for half-maximal inhibition (IC50) worked out at 27.8 nM. For the same molecule, the “S. I. (D6)” value in experiment [3] (D6) is on record as greater than 55.0. Also, the “P. falciparum (IC50) NF54” value in experiment [4] is reported as 35.60 (30.76) ng/mL. Besides, in experiment [5], the “P. falciparum (IC50) W2” value came to 0.03032 µg/mL. The concentration for half-maximal inhibition (IC50) in [9] amounted to 1900 nM. In addition, the “P. falciparum (IC50) D6” value in experiment [6] is 0.00848 µg/mL. In experiment [7], the “P. falciparum (IC50) W2” value was 0.011 µg/mL and the IC50 stood at 11.3 nM. The “S. I. (W2)” value in [7] (W2) is greater than 43. In addition, in experiment [8] (unit not given), the “P. yoelli ssp. NS (S.C.) ED50” value was 0.60 (0.3-0.9) and the “P. yoelli ssp. NS (S.C.) ED90” value was 1.00 (0.5-1.5).
